What was measured:
Format in all cases: cell-based
human RECs = assay: Matrigel microvessel (tube) formation by human RECs; conditions: control and VEGF-treated (50 ng/mL) cultures, 18 hours
Experimental: Since VEGF-mediated angiogenesis and vascular leakage are critical processes in the pathology of diabetic retinopathy, we evaluated the effects of Compound II on the VEGF-induced formation of microvessels by human RECs. The basement membrane-like substrate, Matrigel (Becton-Dickinson, Franklin Lakes, N.J.), was used to induce vessel-like tube formation from human RECs as in previous studies with other cell types (Lee et al., Cancer Lett 208: 89 (2004)). Briefly, 300 μL of Matrigel was pipetted into 24 well plates and allowed to gel at 37° C. for 30 minutes. Human RECs were briefly trypsinized and plated onto the layer of Matrigel at an approximate density of 25,000 cells/cm^2. VEGF (50 ng/mL in PBS) with either DMSO or an SK inhibitor was added to the media immediately. After 18 hours at 37° C., images were digitally captured with a Retiga Ex camera with bright-field microscopy using a Nikon Eclipse TE300 microscope.

phosphorylated ERK1/2 = assay: Western analysis of phosphorylated ERK1/2 in human RECs
Experimental: Western Blotting. Protein concentrations were determined using the fluorescamine assay (Bohlen et al., Arch Biochem Biophys 155: 213 (1973)) with bovine serum albumin as the standard. Samples were normalized for equal amounts of protein per lane (100 μg), separated by sodium dodecylsulfate-polyacrylamide gel electrophoresis and electrotransferred to nitrocellulose membranes. For SK analyses, membranes were blocked with 5% nonfat milk in Tris-buffered saline with Tween 20 and probed with an anti-SK rabbit polyclonal antibody at a 1:50 dilution, washed and incubated with […] antibodies conjugated to horseradish peroxidase (1 hr in 3% nonfat milk). The blots were then washed 4 times for 5 minutes at room temperature, developed with SuperSignal development reagents (Pierce Biotechnology, Inc., Rockford, Ill.) and exposed to Kodak XAR film. […]
Western analyses were conducted to evaluate the effects of Compound II on signaling proteins known to be regulated in endothelial cells by VEGF or TNFα. […] Cell lysates from cells treated with VEGF for 15 minutes were then analyzed for levels of phosphorylated ERK1/2 as a measure of signaling through the Ras-mediated proliferation pathway. Samples from cells treated with TNFα were analyzed for activation of NFκB, i.e. phosphoNFκB, and the down-stream proteins, cyclooxygenase-2 (Cox-2), E-selectin and VCAM-1. […]

endogenous SK [1] = assay: VEGF-stimulated SK activity in bovine RECs; conditions: VEGF 50 ng/mL, 12 hours, serum-starved bovine RECs
Experimental: FIG. 5. Effects of Compound II on VEGF-stimulated SK activity in RECs. Bovine RECs were serum-starved for 24 hours and then left untreated or incubated with VEGF (50 ng/mL) in the presence of DMS (D) or the indicated concentration (in μM) of Compound II for 12 hours. [^3H]Sphingosine was then added to the cells and its conversion to [^3H]S1P was determined. Values represent the mean±SD of duplicate samples in a typical experiment.
(§1) Cellular S1P formation assay. Cells were grown to confluency in 24-well tissue culture plates and serum-starved for 24 hours as described above. Cells were then treated with 1% DMSO (as the drug vehicle), 20 μM dimethylsphingosine, or the indicated concentration of an SK inhibitor for 4 hours. The cells were then incubated with [^3H]sphingosine for 15 minutes, and the formation of [^3H]S1P was measured as previously described (French et al., Cancer Res 63: 5962 (2003)). In some assays, the cells were serum-starved for 24 hours and then treated with VEGF (50 ng/mL) alone or in the presence of an SK inhibitor for an additional 12 hours. [^3 H]Sphingosine was then added for 15 minutes, and its conversion to [^3H]S1P was measured as indicated above.
The effects of VEGF on SK activity in bovine RECs using the same cell-based assay as above, except that serum was removed from the cultures 24 hours before the addition of the SK inhibitor and VEGF were tested. […]

endogenous SK [2] = assay: Cellular S1P formation assay in human chondrocytes (HC); conditions: HCs; read-out: drug concentration that decreases S1P formation by 50%
Experimental: as §1
A cell-based assay in which the phosphorylation of exogenously added [^3H]sphingosine to [^3H]S1P by endogenous SK can be quantified (French et al., Cancer Res 63: 5962 (2003)) was used to evaluate the effects of test compounds on the activity of SK in intact cells. In this assay, cells are incubated with [^3 H]sphingosine for an appropriate period of time, and then [^3H]sphingosine and [^3H]S1P (formed by endogenous SK activity) are separated by extraction and levels of both species are determined by scintillation counting. […] Similarly, the enzymatic activity of SK in bovine RECs, and its sensitivity to SK inhibitors were assessed. […]

endogenous SK [3] = assay: Cellular SK activity in bovine retinal endothelial cells; conditions: 25 μg/mL (approximately 80 μM), 4 hours
Experimental: FIG. 3. Inhibition of cellular SK activity in RECs. Bovine retinal endothelial cells were incubated with 20 μM dimethylsphingosine (DMS) or 25 μg/mL Compound I, Compound II or Compound V (approximately 80 μM for each compound) for 4 hours before the addition of 0.4 μCi of [^3H]sphingosine. After 15 minutes, cells were lysed and extracted with chloroform: methanol. The total amounts of [^3H]sphingosine in the organic phase and [^3H]S1P in the aqueous phase were then determined. Values represent the mean±SD of duplicate samples in a typical experiment.
as §1
A cell-based assay in which the phosphorylation of exogenously added [^3H]sphingosine to [^3H]S1P by endogenous SK can be quantified (French et al., Cancer Res 63: 5962 (2003)) was used to evaluate the effects of test compounds on the activity of SK in intact cells. In this assay, cells are incubated with [^3 H]sphingosine for an appropriate period of time, and then [^3H]sphingosine and [^3H]S1P (formed by endogenous SK activity) are separated by extraction and levels of both species are determined by scintillation counting. We have used a number of cell lines in this assay to confirm that the SK inhibitors are active in multiple intact cell systems. For example, human umbilical vein endothelial cells (HUVECs) are commonly used as a model of human vasculature. […] Similarly, the enzymatic activity of SK in bovine RECs, and its sensitivity to SK inhibitors were assessed. […] Each of inhibitors of SK (Compound I, Compound II and Compound V) was also active against the endogenous SK activity in the bovine RECs.

In the case of `Oc1ccc(Nc2nc(-c3ccc(Cl)cc3)cs2)cc1` [Compound II], the “formation of networks and tubes” value (human RECs) is reported as “marked reduction”, the “VEGF-promoted phosphorylation of ERK1/2” value (phosphorylated ERK1/2; VEGF 50 ng/mL, 15 minutes) is reported as “completely abrogated” and the “residual pERK1/2 in serum-starved cells” value (phosphorylated ERK1/2; human RECs, no VEGF) is reported as “eliminated”. For the same compound, the “concentration completely inhibiting the SK activity response to VEGF” value (endogenous SK [1]) was no less than 1.3 µM, the IC50 (endogenous SK [2]) was 360 nM and the “endogenous SK activity in bovine RECs” value (endogenous SK [3]) was “active”.

Source: patent US20060270631A1, “Methods for the treatment and prevention of angiogenic diseases” (priority 2005, published 2006)
